Test results reported in patent US9751926B2 (priority 2013, dated 2017).
In brackets after ≈: the same amount, converted by molar mass. Like-named read-outs stand apart in the source and are kept apart here. Non-standard residues stand in square brackets, D forms with d. Residues, ends and D or L forms follow the SMILES beside them. Aib = CC(C)(N)C(=O)O

Key:
human glucagon receptor = biological target: T1, human glucagon receptor (Homo sapiens, UniProt P47871); assay: cAMP response (HTRF) of HEK-293 cells stably expressing human glucagon receptor; format: cell-based; details: formed cAMP
T1 construct: expressed in transfected cells
T1 sequence (P47871 26-477): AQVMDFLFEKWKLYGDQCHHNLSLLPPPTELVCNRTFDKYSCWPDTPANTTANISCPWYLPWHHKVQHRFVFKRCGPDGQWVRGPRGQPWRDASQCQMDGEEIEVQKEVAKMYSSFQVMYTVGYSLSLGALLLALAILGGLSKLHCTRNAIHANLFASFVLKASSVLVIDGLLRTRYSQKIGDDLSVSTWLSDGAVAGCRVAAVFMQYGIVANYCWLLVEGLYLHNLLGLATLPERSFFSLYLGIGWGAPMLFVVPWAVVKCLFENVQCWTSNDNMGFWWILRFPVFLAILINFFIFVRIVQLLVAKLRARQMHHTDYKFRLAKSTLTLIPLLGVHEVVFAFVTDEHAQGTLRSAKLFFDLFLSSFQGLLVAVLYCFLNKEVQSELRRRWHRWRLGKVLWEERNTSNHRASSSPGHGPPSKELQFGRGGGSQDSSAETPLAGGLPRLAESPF
Description: (§1) cAMP content of cells was determined using a kit from Cisbio Corp. (cat. no. 62AM4PEC) based on HTRF (Homogenous Time Resolved Fluorescence). For preparation, cells were split into T175 culture flasks and grown overnight to near confluency in medium (DMEM/10% FBS). Medium was then removed and cells washed with PBS lacking calcium and magnesium, followed by proteinase treatment with accutase (Sigma-Aldrich cat. no. A6964). Detached cells were washed and resuspended in assay buffer (1×HBSS; 20 mM HEPES, 0.1% BSA, 2 mM IBMX) and cellular density determined. They were then diluted to 400000 cells/ml and 25 μl-aliquots dispensed into the wells of 96-well plates. For measurement, 25 μl of test compound in assay buffer was added to the wells, followed by incubation for 30 minutes at room temperature.

physchem = format: physicochemical
human GLP-1 receptor = biological target: T2, human GLP-1 receptor (Homo sapiens, UniProt P43220); assay: cAMP response (HTRF) of HEK-293 cells stably expressing human GLP-1 receptor; format: cell-based; details: Table 6; formed cAMP; read-out: EC50 hGLP-1 R
T2 construct: expressed in transfected cells
T2 sequence (P43220 24-463): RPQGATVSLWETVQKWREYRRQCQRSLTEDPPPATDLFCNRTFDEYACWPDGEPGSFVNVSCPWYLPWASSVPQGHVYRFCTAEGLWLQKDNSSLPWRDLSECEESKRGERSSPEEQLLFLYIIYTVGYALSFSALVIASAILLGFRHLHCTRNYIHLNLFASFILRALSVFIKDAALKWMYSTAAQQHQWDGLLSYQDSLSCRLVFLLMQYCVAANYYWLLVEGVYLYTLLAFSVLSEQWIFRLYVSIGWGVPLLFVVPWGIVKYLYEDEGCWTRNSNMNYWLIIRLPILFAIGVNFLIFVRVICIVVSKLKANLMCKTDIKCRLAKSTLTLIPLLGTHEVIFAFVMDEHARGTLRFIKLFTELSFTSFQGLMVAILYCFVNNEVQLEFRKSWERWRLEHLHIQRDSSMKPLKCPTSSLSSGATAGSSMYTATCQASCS
Description: as §1

human GIP receptor = biological target: T3, human GIP receptor (Homo sapiens, UniProt P48546); assay: cAMP response (HTRF) of HEK-293 cells stably expressing human GIP receptor; format: cell-based; details: Table 1; formed cAMP; read-out: EC50 hGIP R
T3 construct: expressed in transfected cells
T3 sequence (P48546 22-466): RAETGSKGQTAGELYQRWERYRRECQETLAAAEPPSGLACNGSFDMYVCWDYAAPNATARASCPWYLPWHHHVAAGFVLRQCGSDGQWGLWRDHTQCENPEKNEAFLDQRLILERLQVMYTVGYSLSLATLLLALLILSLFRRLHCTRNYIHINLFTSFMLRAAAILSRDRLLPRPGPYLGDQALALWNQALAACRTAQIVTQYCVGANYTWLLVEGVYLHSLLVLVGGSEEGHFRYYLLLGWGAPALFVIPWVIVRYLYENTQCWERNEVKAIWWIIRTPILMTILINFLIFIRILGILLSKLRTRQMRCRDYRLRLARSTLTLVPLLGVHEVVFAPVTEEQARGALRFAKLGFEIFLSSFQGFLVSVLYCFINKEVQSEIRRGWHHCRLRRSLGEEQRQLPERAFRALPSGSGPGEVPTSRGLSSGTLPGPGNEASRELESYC
Description: as §1

[1] = Table 6, read-out: EC50 hGLUC R

Compound	EC50 (human glucagon receptor; [1]) [nM]	solubility at 2 h (physchem; pH 4.5) [µg/mL]	solubility at 2 h (physchem; pH 7.4) [µg/mL]	EC50 (human GLP-1 receptor) [nM]	EC50 (human glucagon receptor; Table 1, read-out: EC50 hGlucagon R) [nM]	EC50 (human GIP receptor) [nM]	solubility (physchem; pH 4.5) [µg/mL]	solubility (physchem; pH 7.4) [µg/mL]
CCCC[C@H](NC(=O)[C@H](CCC(N)=O)NC(=O)[C@@H](NC(=O)[C@H](CO)NC(=O)[C@H](CC(C)C)NC(=O)[C@H](CC(=O)O)NC(=O)[C@H](CO)NC(=O)[C@@H](NC(=O)[C@H](Cc1ccccc1)NC(=O)[C@@H](NC(=O)CNC(=O)[C@H](CCC(=O)O)NC(=O)C(C)(C)NC(=O)[C@@H](N)Cc1ccc(O)cc1)[C@@H](C)O)[C@@H](C)O)[C@@H](C)CC)C(=O)N[C@@H](CCC(=O)O)C(=O)N[C@@H](CCCCN)C(=O)N[C@@H](CCC(=O)O)C(=O)N[C@@H](C)C(=O)N[C@H](C(=O)N[C@@H](CCCNC(=N)N)C(=O)N[C@@H](CC(C)C)C(=O)N[C@@H](Cc1ccccc1)C(=O)N[C@H](C(=O)N[C@@H](CCC(=O)O)C(=O)N[C@@H](Cc1c[nH]c2ccccc12)C(=O)N[C@@H](CC(C)C)C(=O)N[C@@H](CCCCN)C(=O)N[C@@H](C)C(=O)NCC(=O)NCC(=O)N1CCC[C@H]1C(=O)N[C@@H](CO)C(=O)N[C@@H](CO)C(=O)NCC(=O)N[C@@H](C)C(=O)N1CCC[C@H]1C(=O)N1CCC[C@H]1C(=O)N1CCC[C@H]1C(=O)N[C@@H](CO)C(=O)N[C@@H](CCCCN)C(N)=O)[C@@H](C)CC)C(C)C [compound 12]	> 1000	943 (≈ 220 µM)	848 (≈ 198 µM)	0.0013				
CC[C@H](C)[C@H](NC(=O)[C@H](CO)NC(=O)[C@H](CC(C)C)NC(=O)[C@H](CC(=O)O)NC(=O)[C@H](CO)NC(=O)[C@@H](NC(=O)[C@H](Cc1ccccc1)NC(=O)[C@@H](NC(=O)CNC(=O)[C@H](CCC(=O)O)NC(=O)C(C)(C)NC(=O)[C@@H](N)Cc1ccc(O)cc1)[C@@H](C)O)[C@@H](C)O)C(=O)N[C@@H](CCC(N)=O)C(=O)N[C@@H](CC(C)C)C(=O)N[C@@H](CCC(=O)O)C(=O)N[C@@H](CCCCN)C(=O)N[C@@H](CCC(=O)O)C(=O)N[C@@H](C)C(=O)N[C@H](C(=O)N[C@@H](CCCNC(=N)N)C(=O)N[C@@H](CC(C)C)C(=O)N[C@@H](Cc1ccccc1)C(=O)N[C@H](C(=O)N[C@@H](CCC(=O)O)C(=O)N[C@@H](Cc1c[nH]c2ccccc12)C(=O)N[C@@H](CC(C)C)C(=O)N[C@@H](CCCCN)C(=O)N[C@@H](C)C(=O)NCC(=O)NCC(=O)N1CCC[C@H]1C(=O)N[C@@H](CO)C(=O)N[C@@H](CO)C(=O)NCC(=O)N[C@@H](C)C(=O)N1CCC[C@H]1C(=O)N1CCC[C@H]1C(=O)N1CCC[C@H]1C(=O)N[C@@H](CO)C(N)=O)[C@@H](C)CC)C(C)C [SEQ ID NO 10, Y-Aib-EGTFTSDLSIQLEKEAVRLFIEWLKAGGPSSGAPPPS-NH2]					> 10000	12.5	934 (≈ 224 µM)	> 1000
CCCC[C@H](NC(=O)[C@H](CCC(N)=O)NC(=O)[C@@H](NC(=O)[C@H](CO)NC(=O)[C@H](CC(C)C)NC(=O)[C@H](CC(=O)O)NC(=O)[C@H](CO)NC(=O)[C@@H](NC(=O)[C@H](Cc1ccccc1)NC(=O)[C@@H](NC(=O)CNC(=O)[C@H](CCC(=O)O)NC(=O)C(C)(C)NC(=O)[C@@H](N)Cc1ccc(O)cc1)[C@@H](C)O)[C@@H](C)O)[C@@H](C)CC)C(=O)N[C@@H](CCC(=O)O)C(=O)N[C@@H](CCCCN)C(=O)N[C@@H](CCC(=O)O)C(=O)N[C@@H](C)C(=O)N[C@H](C(=O)N[C@@H](CCCNC(=N)N)C(=O)N[C@@H](CC(C)C)C(=O)N[C@@H](Cc1ccccc1)C(=O)N[C@H](C(=O)N[C@@H](CCC(=O)O)C(=O)N[C@@H](Cc1c[nH]c2ccccc12)C(=O)N[C@@H](CC(C)C)C(=O)N[C@@H](CCCCN)C(=O)N[C@@H](C)C(=O)NCC(=O)NCC(=O)N1CCC[C@H]1C(=O)N[C@@H](CO)C(=O)N[C@@H](CO)C(=O)NCC(=O)N[C@@H](C)C(=O)N1CCC[C@H]1C(=O)N1CCC[C@H]1C(=O)N1CCC[C@H]1C(=O)N[C@@H](CO)C(N)=O)[C@@H](C)CC)C(C)C [compound 11]	> 1000	911 (≈ 219 µM)	> 1000	0.001				
CC[C@H](C)[C@H](NC(=O)[C@H](CO)NC(=O)[C@H](CC(C)C)NC(=O)[C@H](CC(=O)O)NC(=O)[C@H](CO)NC(=O)[C@@H](NC(=O)[C@H](Cc1ccccc1)NC(=O)[C@@H](NC(=O)CNC(=O)[C@H](CCC(=O)O)NC(=O)C(C)(C)NC(=O)[C@@H](N)Cc1ccc(O)cc1)[C@@H](C)O)[C@@H](C)O)C(=O)N[C@@H](CCC(N)=O)C(=O)N[C@@H](CCSC)C(=O)N[C@@H](CCC(=O)O)C(=O)N[C@@H](CCCCN)C(=O)N[C@@H](CCC(=O)O)C(=O)N[C@@H](C)C(=O)N[C@H](C(=O)N[C@@H](CCCNC(=N)N)C(=O)N[C@@H](CC(C)C)C(=O)N[C@@H](Cc1ccccc1)C(=O)N[C@H](C(=O)N[C@@H](CCC(=O)O)C(=O)N[C@@H](Cc1c[nH]c2ccccc12)C(=O)N[C@@H](CC(C)C)C(=O)N[C@@H](CCCCN)C(=O)N[C@@H](C)C(=O)NCC(=O)NCC(=O)N1CCC[C@H]1C(=O)N[C@@H](CO)C(=O)N[C@@H](CO)C(=O)NCC(=O)N[C@@H](C)C(=O)N1CCC[C@H]1C(=O)N1CCC[C@H]1C(=O)N1CCC[C@H]1C(=O)N[C@@H](CO)C(N)=O)[C@@H](C)CC)C(C)C [compound 9] (H-Y[Aib]EGTFTSDLSIQMEKEAVRLFIEWLKAGGPSSGAPPPS-NH2)	> 1000			0.0011				
CC[C@H](C)[C@H](NC(=O)[C@H](CO)NC(=O)[C@H](CC(C)C)NC(=O)[C@H](CC(=O)O)NC(=O)[C@H](CO)NC(=O)[C@@H](NC(=O)[C@H](Cc1ccccc1)NC(=O)[C@@H](NC(=O)CNC(=O)[C@H](CCC(=O)O)NC(=O)C(C)(C)NC(=O)[C@@H](N)Cc1ccc(O)cc1)[C@@H](C)O)[C@@H](C)O)C(=O)N[C@@H](CCC(N)=O)C(=O)N[C@@H](CC(C)C)C(=O)N[C@@H](CCC(=O)O)C(=O)N[C@@H](CCC(=O)O)C(=O)N[C@@H](CCC(=O)O)C(=O)N[C@@H](C)C(=O)N[C@H](C(=O)N[C@@](C)(CCCN)C(=O)N[C@@H](CC(C)C)C(=O)N[C@@H](Cc1ccccc1)C(=O)N[C@H](C(=O)N[C@@H](CCC(=O)O)C(=O)N[C@@H](Cc1c[nH]c2ccccc12)C(=O)N[C@@H](CC(C)C)C(=O)N[C@@H](CCCCN)C(=O)N[C@@H](C)C(=O)NCC(=O)NCC(=O)N1CCC[C@H]1C(=O)N[C@@H](CO)C(=O)N[C@@H](CO)C(=O)NCC(=O)N[C@@H](C)C(=O)N1CCC[C@H]1C(=O)N1CCC[C@H]1C(=O)N1CCC[C@H]1C(=O)N[C@@H](CO)C(N)=O)[C@@H](C)CC)C(C)C [compound 19]	> 1000			0.0012				
